Source: US12629374B2, “Antimalarial agents” (Merck Sharp & Dohme LLC, priority 2020, dated 2026)
pEC50: −log10 of the molar value. Read-outs that look alike come from different tables or passages of the source.

System: ring stage parasites
Test: Parasite growth potency assay, 72 hours, LDH readout
Assay type: cell-based
How it was run: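 Parasite growth was quantified by LDH assay after a −80 °C freeze-thaw. Before that, compound was incubated for 72 h at 37 °C under humidified gas with ring-stage cultures adjusted to 0.7% parasitemia and 2% haematocrit in serum- and albumax-supplemented RPMI-Hepes.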

[1] = 72 h, parasite growth measured by LDH assay after 72 hours at 37° C., 0.7% rings, 2% haematocrit, read-out: EC50
[2] = parasite growth measured by LDH assay after 72 hours at 37° C., 0.7% rings, 2% haematocrit, read-out: EC50

In the case of `CCC1(CC)CC(=O)N(Cc2cccc(C(=O)NC3(C)CCOc4ccccc43)c2)C(=N)N1` (stereo not drawn) [Example 113, 3-[(4,4-diethyl-2-imino-6-oxo-hexahydropyrimidin-1-yl)methyl]-N-(4-methylchroman-4-yl)benzamide], the pEC50 [1] was 7.02.

For `CC(C)[C@]1(C)CC(=O)N(Cc2cccc(C(=O)N[C@@H]3c4ccccc4C[C@H]3O)c2)C(=N)N1` [Example 10, [(4S)-1-[[3-[[(1R,2R)-2-hydroxyindan-1-yl]carbamoyl]phenyl]methyl]-4-isopropyl-4-methyl-6-oxo-hexahydropyrimidin-2-ylidene]ammonium; 2,2,2-trifluoroacetate], the pEC50 [1] was 8.10.

With `CCC1(CC)CC(=O)N([C@H](CCOC(F)F)c2cccc(C(=O)N[C@@H]3c4ccccc4OC(C)(C)[C@H]3O)c2)C(=N)N1` [Example 159, [1-[3-(difluoromethoxy)-1-[3-[[(3S,4R)-3-hydroxy-2,2-dimethyl-chroman-4-yl]carbamoyl]phenyl]propyl]-4,4-diethyl-6-oxo-hexahydropyrimidin-2-ylidene]ammonium; 2,2,2-trifluoroacetate] the pEC50 [1] was 9.10.

Work on `CCC1(CC)CC(=O)N([C@H](COCCOC)c2cccc(C(=O)N[C@@H]3c4ccccc4C[C@H]3O)c2)C(=N)N1` [Example 140, [4,4-diethyl-1-[(1S)-1-[3-[[(1R,2R)-2-hydroxyindan-1-yl]carbamoyl]phenyl]-2-(2-methoxyethoxy)ethyl]-6-oxo-hexahydropyrimidin-2-ylidene]ammonium; 2,2,2-trifluoroacetate] yielded a pEC50 [1] of 8.49.

Compound `CCC1(CC)CC(=O)N([C@H](CCOC)c2cccc(C(=O)N[C@H]3c4ccccc4OC3(C)C)c2)C(=N)N1` [Example 181B, [1-[(1R)-1-[3-[(2,2-dimethyl-3H-benzofuran-3-yl)carbamoyl]phenyl]-3-methoxy-propyl]-4,4-diethyl-6-oxo-hexahydropyrimidin-2-ylidene]ammonium; 2,2,2-trifluoroacetate] has a pEC50 [1] of 7.15.

Compound `CCC1(CC)CC(=O)N([C@H](c2ccc(OS(=O)(=O)F)cc2)c2cccc(C(=O)N[C@H]3CCOc4ccccc43)c2)C(=N)N1` [Example 150, [1-[[3-[[(4S)-chroman-4-yl]carbamoyl]phenyl]-(4-fluorosulfonyloxyphenyl)methyl]-4,4-diethyl-6-oxo-hexahydropyrimidin-2-ylidene]ammonium; 2,2,2-trifluoroacetate] has a pEC50 (72 h) of 8.55.

For `C#CCC[C@H](c1cccc(C(=O)N[C@H]2CC(C)(C)Oc3ccccc32)c1)N1C(=N)NC(CC)(CC)CC1=O` [Example 214C, 3-[(1R)-1-(4,4-diethyl-2-imino-6-oxo-hexahydropyrimidin-1-yl)pent-4-ynyl]-N-(2,2-dimethylchroman-4-yl)benzamide], the pEC50 [1] was 9.40.

For `CCC1(CC)CC(=O)N(Cc2cccc(C(=O)N[C@@H]3c4ccccc4CC3(C)O)c2)C(=N)N1` (stereo in doubt) [Example 121, 3-[(4,4-diethyl-2-imino-6-oxo-hexahydropyrimidin-1-yl)methyl]-N-(2-hydroxy-2-methyl-indan-1-yl)benzamide], the pEC50 [1] was 8.07.

Compound `CCC[C@H](c1cccc(C(=O)N[C@@H]2c3ccccc3CC2(C)O)c1)N1C(=N)NC(CC)(CC)CC1=O` (stereo partly drawn) [Example 122A, 3-[(1R)-1-(4,4-diethyl-2-imino-6-oxo-hexahydropyrimidin-1-yl)butyl]-N-(2-hydroxy-2-methyl-indan-1-yl)benzamide] has a pEC50 [1] of 8.92.

`CCC1(CC)CC(=O)N(Cc2cc(F)cc(C(=O)N[C@@H]3c4ccccc4C[C@H]3O)c2)C(=N)N1` [Example 35, [4,4-diethyl-1-[[3-fluoro-5-[[(1R,2R)-2-hydroxyindan-1-yl]carbamoyl]phenyl]methyl]-6-oxo-hexahydropyrimidin-2-ylidene]ammonium; 2,2,2-trifluoroacetate] showed a pEC50 [1] of 8.70.

In the case of `CCC1(CC)CC(=O)N([C@H](CCO)c2cccc(C(=O)N[C@H]3CCOc4ccccc43)c2)C(=N)N1` [Example 59, [1-[1-[3-[[(4S)-chroman-4-yl]carbamoyl]phenyl]-3-hydroxy-propyl]-4,4-diethyl-6-oxo-hexahydropyrimidin-2-ylidene]ammonium; 2,2,2-trifluoroacetate], the pEC50 [1] was 8.33.

For `CCC1(CC)CC(=O)N([C@H](CCOC)c2cccc(C(=O)N[C@@H]3c4ccccc4OCC3(C)O)c2)C(=N)N1` (stereo in doubt) [Example 143B, 3-[1-(4,4-diethyl-2-imino-6-oxo-hexahydropyrimidin-1-yl)-3-methoxy-propyl]-N-(3-hydroxy-3-methyl-chroman-4-yl)benzamide], the pEC50 [2] was 8.74.

With `CC1(C)CC(=O)N(C(CC(F)(F)F)c2cccc(C(=O)N[C@@H]3c4ccccc4C[C@H]3O)c2)C(=N)N1` (stereo partly drawn) [Example 224, N-[(1R,2R)-2-hydroxyindan-1-yl]-3-[3,3,3-trifluoro-1-(2-imino-4,4-dimethyl-6-oxo-hexahydropyrimidin-1-yl)propyl]benzamide] the pEC50 [1] was 7.81.

In the case of `CCC1(CC)CC(=O)N(Cc2cccc(C(=O)N[C@H]3c4ccccc4OCC3(C)O)c2)C(=N)N1` (stereo in doubt) [Example 131B, 3-[(4,4-diethyl-2-imino-6-oxo-hexahydropyrimidin-1-yl)methyl]-N-(3-hydroxy-3-methyl-chroman-4-yl)benzamide], the pEC50 [1] was 7.69.

With `CCC1(CC)CC(=O)N([C@H](CCOC)c2cccc(C(=O)N[C@@H]3c4cc(F)ccc4C[C@H]3O)c2)C(=N)N1` [Example 170, [4,4-diethyl-1-[(1R)-1-[3-[(6-fluoro-2-hydroxy-indan-1-yl)carbamoyl]phenyl]-3-methoxy-propyl]-6-oxo-hexahydropyrimidin-2-ylidene]ammonium; 2,2,2-trifluoroacetate] the pEC50 [1] was 9.15.

Work on `CCC1(CC)CC(=O)N(C(CC(O)C(F)(F)F)c2cccc(C(=O)N[C@@H]3c4ccccc4C[C@H]3O)c2)C(=N)N1` (single isomer, unassigned) [Example 236C] yielded a pEC50 [2] of 8.64.

`CCC1(CC)CC(=O)N([C@H](CCC#N)c2cccc(C(=O)N[C@H]3CC(C)(C)Oc4ccccc43)c2)C(=N)N1` [Example 107, [1-[3-cyano-1-[3-[[(4S)-2,2-dimethylchroman-4-yl]carbamoyl]phenyl]propyl]-4,4-diethyl-6-oxo-hexahydropyrimidin-2-ylidene]ammonium; 2,2,2-trifluoroacetate] showed a pEC50 [1] of 9.70.

In the case of `CCC1(CC)CC(=O)N([C@H](CCOC)c2cc(F)cc(C(=O)N[C@@H]3c4ccccc4CC3(C)O)c2)C(=N)N1` (stereo in doubt) [Example 144B, 3-[1-(4,4-diethyl-2-imino-6-oxo-hexahydropyrimidin-1-yl)-3-methoxy-propyl]-5-fluoro-N-(2-hydroxy-2-methyl-indan-1-yl)benzamide], the pEC50 [2] was 8.72.

For `CCC1(CC)CC(=O)N([C@H](c2cccc(C(=O)N[C@H]3CCOc4ccccc43)c2)c2cccc(S(C)(=O)=O)c2)C(=N)N1` [Example 123B, [1-[[3-[[(4S)-chroman-4-yl]carbamoyl]phenyl]-(3-methylsulfonylphenyl)methyl]-4,4-diethyl-6-oxo-hexahydropyrimidin-2-ylidene]ammonium; 2,2,2-trifluoroacetate], the pEC50 [1] was 8.03.

For `CCC1(CC)CC(=O)N([C@H](C)c2cccc(C(=O)N[C@H]3CCOc4ccccc43)c2)C(=N)N1` [Example 31, [1-[1-[3-[[(4S)-chroman-4-yl]carbamoyl]phenyl]ethyl]-4,4-diethyl-6-oxo-hexahydropyrimidin-2-ylidene]ammonium; 2,2,2-trifluoroacetate], the pEC50 [1] was 9.10.

In the case of `CCC1(CC)CC(=O)N([C@H](c2ccccc2)c2cccc(C(=O)N[C@H]3CCOc4ccccc43)c2)C(=N)N1` [Example 4A, [1-[[3-[[(4S)-chroman-4-yl]carbamoyl]phenyl]-phenyl-methyl]-4,4-diethyl-6-oxo-hexahydropyrimidin-2-ylidene]ammonium; 2,2,2-trifluoroacetate], the pEC50 [1] was 9.40.

For `CCC1(CC)CC(=O)N([C@@H](c2cccc(C(=O)N[C@@H]3CC(C)(C)Oc4ccccc43)c2)c2cncs2)C(=N)N1` (stereo in doubt) [Example 90A, 3-[(4,4-diethyl-2-imino-6-oxo-hexahydropyrimidin-1-yl)-thiazol-5-yl-methyl]-N-(2,2-dimethylchroman-4-yl)benzamide], the pEC50 [2] was 8.49.

With `CC1(C)CC(=O)N(Cc2cccc(C(=O)N[C@H]3CC(C)(C)Oc4ccccc43)c2)C(=N)N1` [Example 198, [1-[[3-[[(4S)-2,2-dimethylchroman-4-yl]carbamoyl]phenyl]methyl]-4,4-dimethyl-6-oxo-hexahydropyrimidin-2-ylidene]ammonium; 2,2,2-trifluoroacetate] the pEC50 [1] was 7.77.

`CCC1(CC)CC(=O)N([C@H](CCC#N)c2cccc(C(=O)N[C@H]3CCOc4ccccc43)c2)C(=N)N1` [Example 73A, [1-[1-[3-[[(4S)-chroman-4-yl]carbamoyl]phenyl]-3-cyano-propyl]-4,4-diethyl-6-oxo-hexahydropyrimidin-2-ylidene]ammonium; 2,2,2-trifluoroacetate] showed a pEC50 [1] of 9.15.

`CCC1(CC)CC(=O)N(Cc2cccc(C(=O)N[C@H]3C[C@H](C(F)(F)F)Oc4ccccc43)c2)C(=N)N1` (stereo in doubt) [Example 97, [4,4-diethyl-6-oxo-1-[[3-[[2-(trifluoromethyl)chroman-4-yl]carbamoyl]phenyl]methyl]hexa-hydropyrimidin-2-ylidene]ammonium; 2,2,2-trifluoroacetate] showed a pEC50 (parasite growth measured by LDH assay after 72 hours at 37° C., 0.7% rings, 2% haematocrit, trifluoroacetate, read-out: EC50) of 7.97.

`C[C@H](c1cccc(C(=O)NC2c3ccccc3OC(C)(C)C2(C)O)c1)N1C(=N)NC(C)(C)CC1=O` (stereo partly drawn) [Example 222, N-(3-hydroxy-2,2,3-trimethyl-chroman-4-yl)-3-[(1R)-1-(2-imino-4,4-dimethyl-6-oxo-hexahydropyrimidin-1-yl)ethyl]benzamide] showed a pEC50 [1] of 8.64.

`CCC1(CC)CC(=O)N([C@H](CCOC)c2cccc(C(=O)N[C@@H]3c4ccccc4C[C@H]3O)c2)C(=N)N1` [Example 2, 3-((R)-1-(4,4-diethyl-2-imino-6-oxotetrahydropyrimidin-1(2H)-yl)-3-methoxypropyl)-N-((1R,2R)-2-hydroxy-2,3-dihydro-1H-inden-1-yl)benzamide] showed a pEC50 [1] of 8.89.
